Changes are numbered by the printed parent chain.
Key:
[1] = molecular target: T1, PtKCS4 (Populus trichocarpa, UniProt U7E0F5); assay type: cell-based; conditions: inhibition; 30 °C, 4 days, yeast culture
T1 sequence (U7E0F5 1-524): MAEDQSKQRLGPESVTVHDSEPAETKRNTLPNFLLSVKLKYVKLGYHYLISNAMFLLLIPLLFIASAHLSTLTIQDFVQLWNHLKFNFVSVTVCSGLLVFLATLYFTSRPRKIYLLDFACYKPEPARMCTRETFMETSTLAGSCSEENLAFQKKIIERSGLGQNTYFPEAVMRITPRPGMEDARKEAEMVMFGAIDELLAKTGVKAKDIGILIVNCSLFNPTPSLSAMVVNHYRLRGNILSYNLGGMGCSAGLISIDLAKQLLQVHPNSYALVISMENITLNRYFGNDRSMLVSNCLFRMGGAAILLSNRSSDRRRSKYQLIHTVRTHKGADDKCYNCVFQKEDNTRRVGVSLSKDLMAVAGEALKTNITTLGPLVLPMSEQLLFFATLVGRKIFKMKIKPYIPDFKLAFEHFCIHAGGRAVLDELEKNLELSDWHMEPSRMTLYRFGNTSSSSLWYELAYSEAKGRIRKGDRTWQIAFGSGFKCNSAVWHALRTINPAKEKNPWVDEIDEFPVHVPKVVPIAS

[2] = molecular target: T2, PtKCS2 (Populus trichocarpa, UniProt A0A2K1YQQ5); assay type: cell-based; conditions: inhibition; 30 °C, 4 days, yeast culture
T2 sequence (A0A2K1YQQ5 1-524): T1 sequence (U7E0F5 1-524) with C94S, T137K, T139V, C144F, R283C

| Structure (SMILES) | proportion of total VLC-FAMEs vs uninhibited control at 2 μM [1] | proportion of total VLC-FAMEs vs uninhibited control at 2 μM [2] |
| --- | --- | --- |
| CC(C)N(C(=O)COc1nnc(C(F)(F)F)s1)c1ccc(F)cc1 [flufenacet] | Flufenacet and fentrazamide had the greatest effect on reducing VLCFA elongation in all three KCSs | Flufenacet and fentrazamide had the greatest effect on reducing VLCFA elongation in all three KCSs |
| CCc1cccc(CC)c1N(COC)C(=O)CCl [alachlor] | whereas alachlor and anilofos slightly reduced activity | whereas alachlor and anilofos slightly reduced activity |

From PMC9574513 (The Journal of Biological Chemistry, 2022)
